Assay results from ChEMBL document CHEMBL1143458, “An efficient synthesis of argifin: a natural product chitinase inhibitor with chemotherapeutic potential” (Bioorg Med Chem Lett, 2005).

Columns and labels:
[1] = system: CNC(=O)NC(=N)NCCC[C@@H]1NC(=O)[C@@H](C)NC(=O)C[C@@H](C(=O)O)NC(=O)C[C@@H](C(=O)O)NC(=O)[C@H](Cc2ccccc2)N(C)C1=O; assay: Michaelis constant for compound binding to Chitinase B1; conditions: Aspergillus fumigatus
Endochitinase B1 = Endochitinase B1 (Aspergillus fumigatus, UniProt Q873X9); assay: Inhibitory activity against Chitinase B1 (AfChiB1) using fuorometric assay with 4-methylumbelliferyl-b-D-N,N0-diacetylchitobiose as substrate
[2] = Maximum rate of metabolism of compound; type: ADME; conditions: aspergillus fumigatus

Endochitinase B1 (Aspergillus fumigatus) (from UniProt Q873X9)
Km [1]: 10.4 µM

CNC(=O)NC(=N)NCCC[C@@H]1NC(=O)[C@@H](C)NC(=O)C[C@@H](C(=O)O)NC(=O)C[C@@H](C(=O)O)NC(=O)[C@H](Cc2ccccc2)N(C)C1=O [ARGIFIN]
Ki (Endochitinase B1): 17 nM
Vmax [2]: 2.7 nM/s
